Here are results for 1 compound from US5422350A, “Nitrogen substituted acridine and cytochrome P450 inhibitors and methods of use” (priority 1992, dated 1995).

One series deals with rat hepatocytes. The experiment in a line: Irreversible binding of tacrine-derived radioactivity to rat hepatocytes with chloroquine. The format is in vitro ADME. The following applies: Tacrine alone. The source says: D. J. Back, H. S. Purba, C. […] PHARMACOL., Vol. 32, pp. 257-264 (1983). Ethoxyresorufin O-deethylation is selectively catalyzed by P450 1A2. C. Gleizes, C. […] PHARMACOL. VOL. 41, pp. 1813-1820 (1991).

Series [1] can be described thus: Clinical drug interaction study, tacrine with cimetidine. The format is in vivo, human. As to conditions: 40 mg tacrine with 300-mg four times a day cimetidine vs tacrine alone. The source says:
A. Somogyi and M. Muirhead, "Pharmacokinetic Interactions of Cimetidine", CLIN. PHARMACOKIN., Vol. 12, pp. 321-366 (1987).

Series [2] can be described thus: Irreversible protein binding of 14C-tacrine-derived radioactivity, human liver microsomes. As for the experimental part:
Total reaction volume was 3 mL. Reactions were stopped by freezing in liquid nitrogen or dry-ice acetone. […] D. J. Waxman and L. Axaroff, "Phenobarbital induction of cytochrome P-450 Gene Expression", BIOCHEM J, Vol. 281, pp. 577-592 (1992); P. Soucek and I. Gut, supra.
C. N. Martin and R. C. Garner: "Covalent Binding In Vitro and In Vivo" in BIOCHEMICAL TOXICOLOGY: A PRACTICAL APPROACH, Eds. K. Snell and B. Mullock, IRL, Wash. D.C. pp. 109-126 (1987).
A general note: Microsomes from liver hold many membrane-bound enzymes, among them those of drug oxidation.

The conditions of series [3]: cited from earlier work.

Each structure is given as a SMILES string.

For the compound `Cl.Nc1c2c(nc3ccccc13)CCCC2.O` [Tacrine, 1,2,3,4-tetrahydro-9-acridinamine monohydrate monohydrochloride], the “tacrine-equivalents bound per mg hepatic protein” value in the series on rat hepatocytes (5 min, N = 2) worked out at 0.020 nmol; in the series on rat hepatocytes (15 min), 0.037 nmol; in the series on rat hepatocytes (30 min), 0.061 nmol; with rat hepatocytes (60 min), 0.128 nmol; in the series with rat hepatocytes (90 min), 0.183 nmol; in the series with rat hepatocytes (120 min) it was 0.294 nmol. Further, the “tacrine-equivalents bound per mg hepatic protein” value in the series with rat hepatocytes (180 min) is 0.377 nmol. Moreover, the higher plasma concentrations result in series [1] is “approximately 40%”. The “detection of a hydroxylamine metabolite” value in series [2] was “unsuccessful”. In addition, the “irreversible binding of 14C-tacrine-derived radioactivity to microsomal protein” value in series [2] was “no detectable”. The “rate and products of metabolism” value in series [2] is given as “rapidly metabolized not only to 1-hydroxytacrine but also to 7-hydroxytacrine”. Besides, the extent of metabolism result in series [3] (animals and man) is listed as “extensively metabolized”. Moreover, the “formation of THA metabolites in serum” value in series [3] (patients given THA) is “very rapid formation of THA metabolites”. The “liver enzymes after administration” value in series [3] (patients) is listed as “elevations of liver enzymes are found in some patients”.
